Source: patent publication US5227485A, “Pyrazolo[3,4-d]pyrimidines with adenosine-like binding affinities” (Griffith University, priority 1990, dated 1993)

Columns and labels:
[1] = test system: adenosine uptake system (nucleoside transporter); settings: cited from earlier work
[2] = in vivo; rats (printed "rates"); cited from earlier work
A2 site = settings: cited from earlier work
benzodiazepine receptors = settings: cited from earlier work
adenosine deaminase = settings: cited from earlier work
mice = settings: oral or intraperitoneal; cited from earlier work
cerebellar cyclic GMP = settings: in vivo; cited from earlier work
mouse spinal cord = settings: at doses in which neuromuscular junction transmission was unaltered; cited from earlier work
A1 site = settings: cited from earlier work
A1 receptor = biological target: T1, A1 receptor (Rattus norvegicus, UniProt P25099); test: IC50 at the A1 receptor (^3 H-PIA); assay type: binding; settings: for IC50: ^3 H-PIA
T1 sequence (P25099 1-326): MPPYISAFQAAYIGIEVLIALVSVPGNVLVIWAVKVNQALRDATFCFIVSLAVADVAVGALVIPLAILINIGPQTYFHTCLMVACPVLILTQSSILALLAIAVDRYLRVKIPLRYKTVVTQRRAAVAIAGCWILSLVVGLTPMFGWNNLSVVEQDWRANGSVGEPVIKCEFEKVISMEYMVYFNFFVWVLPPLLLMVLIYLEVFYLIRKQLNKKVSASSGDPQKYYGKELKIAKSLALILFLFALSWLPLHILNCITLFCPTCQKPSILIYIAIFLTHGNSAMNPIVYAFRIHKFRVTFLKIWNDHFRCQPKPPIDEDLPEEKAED

A2 receptor = A2 receptor (Rattus norvegicus, UniProt P30543); test: IC50 at the A2 receptor (^3 H-CGS21680); assay type: binding
A2 surface receptors = settings: cited from earlier work; for agonism at the A2 site: in words
A1 surface receptors = settings: both sites, in words; cited from earlier work
rats = settings: NECA vs R-PIA; cited from earlier work
[3] = in vivo; cited from earlier work
[4] = test system: coronary vascular smooth muscle; settings: cited from earlier work
[5] = test system: noradrenaline-contracted guinea pig aorta; settings: by interactions with A2 receptors; cited from earlier work
animals = settings: cited from earlier work
[6] = because of antagonism of the effects of extracellular adenosine; cited from earlier work

A2 receptor, sequence (P30543 whole entry): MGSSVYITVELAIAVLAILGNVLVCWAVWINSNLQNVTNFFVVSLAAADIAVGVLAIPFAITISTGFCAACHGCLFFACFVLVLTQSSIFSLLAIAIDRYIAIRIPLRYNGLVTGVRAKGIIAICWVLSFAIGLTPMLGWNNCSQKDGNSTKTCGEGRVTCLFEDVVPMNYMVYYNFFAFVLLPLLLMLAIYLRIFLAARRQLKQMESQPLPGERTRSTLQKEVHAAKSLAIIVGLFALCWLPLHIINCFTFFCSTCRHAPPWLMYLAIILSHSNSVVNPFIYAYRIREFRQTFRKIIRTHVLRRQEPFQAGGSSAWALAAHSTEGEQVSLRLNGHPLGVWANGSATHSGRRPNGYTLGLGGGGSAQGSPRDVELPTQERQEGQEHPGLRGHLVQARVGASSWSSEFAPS

Cn1c(N)c2ncn([C@@H]3O[C@H](CO)[C@@H](O)[C@H]3O)c2nc1=O [1-methylisoguanosine]
substrate for, or inhibitor of, the adenosine uptake system [1]: poor substrate for, or inhibitor of, the adenosine uptake system | effect on blood pressure and heart rate [2]: reduced blood pressure and heart rate | interaction with extracellular adenosine receptors, A2 site (A2 site): can interact with extracellular adenosine receptors | Ki (benzodiazepine receptors; benzodiazepine receptors, read-out: Ki vs ^3 H-diazepam binding): ~17000 nM | potency at benzodiazepine receptors relative to inosine and hypoxanthine (benzodiazepine receptors; comparison in words): several hundred fold more potent than inosine and hypoxanthine | degradation by adenosine deaminase (adenosine deaminase): resistant to degradation by adenosine deaminase | muscle relaxation and hypothermia (mice): potent muscle relaxation and hypothermine | cerebellar levels of cyclic GMP (cerebellar cyclic GMP): decreases cerebellar levels of cyclic GMP | polysynaptic responses in the mouse spinal cord (mouse spinal cord): blocked polysynaptic responses | interaction with extracellular adenosine receptors, A1 site (A1 site): can interact with extracellular adenosine receptors

CCCCSc1cc(Nc2ccccc2)nc(SC(C)C(N)=O)n1 (centres unmarked) [Compound 1, (2-n-butylthio)-4-(N-phenyl)-6-propionamidyl thiopyrimidine]
affinity for the A1 receptor (A1 receptor; in words): moderate affinity

CCC(Sc1nc(SC(CC)C(N)=O)c2cnn(-c3ccccc3)c2n1)C(N)=O (stereo not drawn) [Compound 4, 4,6-bis-α-carbamoylpropylthio-1-phenylpyrazolo[3,4-d]pyrimidine]
IC50 (A1 receptor): 108 nM | potency of butanamide side chain versus propionamide moiety in FIG. 3 (A1 receptor; comparison in words): increased potency over the proprionamide moiety

CCC(Sc1nc2c(cnn2-c2ccccc2)c(=S)[nH]1)C(N)=O (stereo not drawn) [Compound 5, 6-α-carbamoylpropylthio-4-mercapto-1-phenylpyrazolo[3,4-d]pyrimidine]
IC50 (A1 receptor): 492 nM

CCNC(=O)C(C)Sc1nc(SC(C)C(=O)NCC)c2cnn(-c3ccccc3)c2n1 (stereo not drawn) [Compound 6, 4,6-Bis-α-N-ethylcarbamoylethylthio-1-phenylpyrazolo[3,4-d]pyrimidine]
IC50 (A2 receptor): 570 nM | IC50 (A1 receptor): 580 nM

CCNC(=O)C(C)Sc1nc(S)c2cnn(-c3ccccc3)c2n1 (stereo not drawn) [Compound 7, 6-α-N-Ethylcarbamoylethylthio-4-mercapto-1-phenylpyrazolo[3,4-d]pyrimidine]
IC50 (A2 receptor): 540 nM | IC50 (A1 receptor): 490 nM

CCNC(=O)C(C)Sc1nc(N)c2cnn(-c3ccccc3)c2n1 (centres unmarked) [Compound 8]
IC50 (A1 receptor): 17 nM

CCNC(=O)[C@H]1O[C@@H](n2cnc3c(N)ncnc32)[C@H](O)[C@@H]1O [NECA, 5'-N-ethyl carboxamidoadenosine]
agonist potency at A2 surface receptors (A2 surface receptors; adenylate cyclase systems, NECA vs R-PIA): more potent agonist at A2 surface receptors than is R-N^6 -phenylisopropyl adenosine (R-PIA) | agonism at the A2 site (A2 surface receptors): non-selective and are good agonists at both sites | agonism at the A1 site (A1 surface receptors): non-selective and are good agonists at both sites | anticonvulsant activity in reductions of amygdaloid-kindled seizures (rats): slightly more anticonvulsant activity than R-PIA

C[C@H](Cc1ccccc1)Nc1ncnc2c1ncn2[C@@H]1O[C@H](CO)[C@@H](O)[C@H]1O [PIA]
agonism at the A2 site (A2 surface receptors): reduced agonistic activity

Nc1ncnc2c1ncn2[C@@H]1O[C@H](CO)[C@@H](O)[C@H]1O [adenosine]
agonism at the A2 site (A2 surface receptors): non-selective and are good agonists at both sites | activity of adenosine in words [3]: profound hypotensive, antispasmodic, sedative and vasodilatory activity | agonism at the A1 site (A1 surface receptors): non-selective and are good agonists at both sites | relaxation of coronary vascular smooth muscle [4]: causes relaxation | relaxation of noradrenaline-contracted guinea pig aorta [5]: relaxed | effects when given to animals (animals; intraperitoneal, alone): minimal or no effects | effects in the presence of an adenosine uptake inhibitor and/or adenosine deaminase inhibitor (animals; with adenosine uptake inhibitor and/or adenosine deaminase inhibitor): can cause muscle relaxation and hypothermia

Cn1c(=O)c2c(ncn2C)n(C)c1=O [caffeine]
central stimulant action [6]: central stimulant action

CN1C(=O)CN=C(c2ccccc2)c2cc(Cl)ccc21 [diazepam]
Kd (benzodiazepine receptors; radioligand, read-out: Kd of ^3 H-diazepam binding): 11 nM | cerebellar levels of cyclic GMP (cerebellar cyclic GMP): decreases cerebellar levels of cyclic GMP

Cn1c(=O)c2[nH]cnc2n(C)c1=O [theophylline]
central stimulant action [6]: central stimulant action
